Results published in ChEMBL document CHEMBL1156313, “Structure-activity relationship of novel DAPK inhibitors identified by structure-based virtual screening” (Bioorg Med Chem, 2010).

Key:
[1] = target: T1, Death-associated protein kinase 3 (Homo sapiens, UniProt O43293); test: Inhibition of human recombinant DAPK3 at 10 uM
Target sequence in this assay (O43293 whole entry, looked up): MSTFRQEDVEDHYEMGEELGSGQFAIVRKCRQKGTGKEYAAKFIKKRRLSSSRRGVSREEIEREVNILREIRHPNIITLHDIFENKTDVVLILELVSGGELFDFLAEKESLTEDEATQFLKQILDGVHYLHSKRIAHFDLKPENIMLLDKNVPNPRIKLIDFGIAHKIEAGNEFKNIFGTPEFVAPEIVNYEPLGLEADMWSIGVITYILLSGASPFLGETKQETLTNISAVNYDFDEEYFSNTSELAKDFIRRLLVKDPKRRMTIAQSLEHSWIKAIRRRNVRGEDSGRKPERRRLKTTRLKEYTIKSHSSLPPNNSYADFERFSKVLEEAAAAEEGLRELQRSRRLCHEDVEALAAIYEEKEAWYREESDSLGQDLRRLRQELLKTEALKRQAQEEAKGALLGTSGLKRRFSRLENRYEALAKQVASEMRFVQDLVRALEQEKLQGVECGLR

[2] = target: Mitogen-activated protein kinase 14 (Homo sapiens) (UniProt Q16539); test: Inhibition of P38alpha at 10 uM
[3] = target: Ribosomal protein S6 kinase alpha-5 (Homo sapiens) (UniProt O75582); test: Inhibition of MSK1 at 10 uM
[4] = target: Proto-oncogene tyrosine-protein kinase Src (Homo sapiens) (UniProt P12931); test: Inhibition of SRC at 10 uM
Sequence of Proto-oncogene tyrosine-protein kinase Src (Homo sapiens) (P12931 2-536 limits assumed): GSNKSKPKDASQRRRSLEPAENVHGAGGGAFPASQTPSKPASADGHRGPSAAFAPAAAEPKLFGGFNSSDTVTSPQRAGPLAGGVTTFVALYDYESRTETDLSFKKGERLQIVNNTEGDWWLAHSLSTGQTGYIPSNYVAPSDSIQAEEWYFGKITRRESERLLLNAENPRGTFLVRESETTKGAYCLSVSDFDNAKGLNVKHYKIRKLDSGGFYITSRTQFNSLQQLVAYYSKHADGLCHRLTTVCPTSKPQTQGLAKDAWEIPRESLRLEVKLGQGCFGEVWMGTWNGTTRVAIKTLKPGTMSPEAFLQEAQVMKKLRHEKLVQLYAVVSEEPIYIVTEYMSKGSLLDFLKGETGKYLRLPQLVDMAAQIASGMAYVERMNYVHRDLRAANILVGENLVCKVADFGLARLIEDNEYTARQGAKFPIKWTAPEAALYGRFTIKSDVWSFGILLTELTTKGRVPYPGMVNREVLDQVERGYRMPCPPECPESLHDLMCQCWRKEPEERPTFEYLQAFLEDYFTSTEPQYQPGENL

[5] = target: RAC-beta serine/threonine-protein kinase (Homo sapiens) (UniProt P31751); test: Inhibition of AKT2 at 10 uM
[6] = target: Death-associated protein kinase 1 (Homo sapiens) (UniProt P53355); test: Inhibition of DAPK1 at 10 uM
Sequence of Death-associated protein kinase 1 (Homo sapiens) (P53355 whole entry, looked up): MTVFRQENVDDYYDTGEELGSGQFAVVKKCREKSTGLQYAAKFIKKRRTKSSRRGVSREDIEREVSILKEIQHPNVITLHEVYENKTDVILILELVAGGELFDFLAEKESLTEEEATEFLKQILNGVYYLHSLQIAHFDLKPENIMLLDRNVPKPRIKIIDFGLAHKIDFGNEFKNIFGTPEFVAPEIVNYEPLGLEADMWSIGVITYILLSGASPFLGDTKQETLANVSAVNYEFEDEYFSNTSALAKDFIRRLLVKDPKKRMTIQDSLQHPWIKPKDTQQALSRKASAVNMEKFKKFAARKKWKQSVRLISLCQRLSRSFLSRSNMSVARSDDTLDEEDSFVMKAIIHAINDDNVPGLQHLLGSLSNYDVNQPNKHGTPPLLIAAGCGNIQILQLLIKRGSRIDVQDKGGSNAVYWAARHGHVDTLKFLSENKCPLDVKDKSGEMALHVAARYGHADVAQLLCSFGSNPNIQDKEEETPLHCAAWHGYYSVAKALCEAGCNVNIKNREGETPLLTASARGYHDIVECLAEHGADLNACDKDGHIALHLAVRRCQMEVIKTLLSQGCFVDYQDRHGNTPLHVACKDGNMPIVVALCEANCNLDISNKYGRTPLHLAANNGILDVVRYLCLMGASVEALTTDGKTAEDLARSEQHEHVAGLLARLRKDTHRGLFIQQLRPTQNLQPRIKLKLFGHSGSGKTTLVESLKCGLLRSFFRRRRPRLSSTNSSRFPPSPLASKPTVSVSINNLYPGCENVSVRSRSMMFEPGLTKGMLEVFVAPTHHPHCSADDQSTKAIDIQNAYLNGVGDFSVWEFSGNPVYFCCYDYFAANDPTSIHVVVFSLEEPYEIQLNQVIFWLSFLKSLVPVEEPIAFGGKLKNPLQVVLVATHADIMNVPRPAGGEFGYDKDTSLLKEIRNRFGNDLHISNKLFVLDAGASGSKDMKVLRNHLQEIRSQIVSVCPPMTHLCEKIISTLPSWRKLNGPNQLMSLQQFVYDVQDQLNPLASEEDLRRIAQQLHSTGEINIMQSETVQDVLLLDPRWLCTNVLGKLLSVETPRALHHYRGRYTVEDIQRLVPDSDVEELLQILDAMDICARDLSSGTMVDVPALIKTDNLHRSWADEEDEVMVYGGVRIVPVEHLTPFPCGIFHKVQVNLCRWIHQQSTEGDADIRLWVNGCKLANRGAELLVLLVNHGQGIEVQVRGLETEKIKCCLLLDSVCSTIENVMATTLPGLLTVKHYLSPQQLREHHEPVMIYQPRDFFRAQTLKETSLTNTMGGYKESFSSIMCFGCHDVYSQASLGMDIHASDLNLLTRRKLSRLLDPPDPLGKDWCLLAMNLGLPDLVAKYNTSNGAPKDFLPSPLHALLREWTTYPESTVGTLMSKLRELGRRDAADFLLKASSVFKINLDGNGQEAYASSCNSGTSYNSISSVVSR

[7] = target: T2, Aurora kinase A (Homo sapiens) (UniProt O14965); test: Inhibition of Aurora A at 10 uM
T2 sequence (whole entry): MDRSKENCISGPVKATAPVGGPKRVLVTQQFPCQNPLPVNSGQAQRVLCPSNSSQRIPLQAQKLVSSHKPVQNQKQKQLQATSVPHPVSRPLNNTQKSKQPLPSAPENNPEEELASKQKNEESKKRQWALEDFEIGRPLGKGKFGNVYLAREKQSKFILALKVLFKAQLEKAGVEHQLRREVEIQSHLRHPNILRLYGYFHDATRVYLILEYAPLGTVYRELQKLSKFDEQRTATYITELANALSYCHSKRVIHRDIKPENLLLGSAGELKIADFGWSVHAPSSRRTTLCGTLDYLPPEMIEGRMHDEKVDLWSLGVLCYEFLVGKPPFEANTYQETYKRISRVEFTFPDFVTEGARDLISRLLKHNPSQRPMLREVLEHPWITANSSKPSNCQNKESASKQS

[8] = target: Ribosomal protein S6 kinase alpha-1 (Homo sapiens) (UniProt Q15418); test: Inhibition of RSK1 at 10 uM
Sequence of Ribosomal protein S6 kinase alpha-1 (Homo sapiens) (Q15418 whole entry): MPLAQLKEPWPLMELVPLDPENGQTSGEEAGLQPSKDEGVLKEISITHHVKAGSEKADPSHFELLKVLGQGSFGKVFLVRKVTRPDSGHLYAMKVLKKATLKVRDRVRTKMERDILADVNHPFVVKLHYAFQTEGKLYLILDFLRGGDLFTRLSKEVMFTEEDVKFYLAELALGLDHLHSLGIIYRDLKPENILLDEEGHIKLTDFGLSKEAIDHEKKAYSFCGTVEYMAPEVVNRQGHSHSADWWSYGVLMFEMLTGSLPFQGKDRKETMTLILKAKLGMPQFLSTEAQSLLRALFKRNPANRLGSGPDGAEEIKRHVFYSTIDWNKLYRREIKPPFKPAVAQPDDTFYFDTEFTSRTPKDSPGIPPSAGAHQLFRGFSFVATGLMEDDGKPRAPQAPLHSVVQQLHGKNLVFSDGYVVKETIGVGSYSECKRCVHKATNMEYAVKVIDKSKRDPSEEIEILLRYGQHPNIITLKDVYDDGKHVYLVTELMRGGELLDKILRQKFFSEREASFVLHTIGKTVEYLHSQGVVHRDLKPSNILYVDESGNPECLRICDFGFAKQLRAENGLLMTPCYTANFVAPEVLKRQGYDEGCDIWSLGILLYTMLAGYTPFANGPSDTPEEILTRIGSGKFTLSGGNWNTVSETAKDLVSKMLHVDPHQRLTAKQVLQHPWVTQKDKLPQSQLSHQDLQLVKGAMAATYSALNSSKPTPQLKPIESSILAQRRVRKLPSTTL

[9] = target: Tyrosine-protein kinase Lck (Homo sapiens) (UniProt P06239); test: Inhibition of LCK at 10 uM
Sequence of Tyrosine-protein kinase Lck (Homo sapiens) (P06239 2-509 limits assumed): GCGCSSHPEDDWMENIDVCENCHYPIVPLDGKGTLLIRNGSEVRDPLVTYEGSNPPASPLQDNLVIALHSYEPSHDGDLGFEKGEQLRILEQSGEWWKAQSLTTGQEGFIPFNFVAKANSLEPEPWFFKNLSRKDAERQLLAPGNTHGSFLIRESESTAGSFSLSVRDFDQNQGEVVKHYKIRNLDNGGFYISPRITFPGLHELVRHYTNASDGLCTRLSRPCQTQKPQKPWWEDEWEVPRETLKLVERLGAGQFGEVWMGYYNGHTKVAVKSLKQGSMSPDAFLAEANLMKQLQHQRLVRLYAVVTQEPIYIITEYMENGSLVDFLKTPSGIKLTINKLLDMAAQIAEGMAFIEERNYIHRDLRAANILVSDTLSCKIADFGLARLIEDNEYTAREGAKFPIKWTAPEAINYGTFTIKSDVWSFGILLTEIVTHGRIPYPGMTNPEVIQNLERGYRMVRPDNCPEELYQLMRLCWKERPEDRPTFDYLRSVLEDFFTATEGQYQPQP

[10] = target: T3, Protein kinase C zeta type (Homo sapiens) (UniProt Q05513); test: Inhibition of PKCzeta at 10 uM
T3 sequence (whole entry): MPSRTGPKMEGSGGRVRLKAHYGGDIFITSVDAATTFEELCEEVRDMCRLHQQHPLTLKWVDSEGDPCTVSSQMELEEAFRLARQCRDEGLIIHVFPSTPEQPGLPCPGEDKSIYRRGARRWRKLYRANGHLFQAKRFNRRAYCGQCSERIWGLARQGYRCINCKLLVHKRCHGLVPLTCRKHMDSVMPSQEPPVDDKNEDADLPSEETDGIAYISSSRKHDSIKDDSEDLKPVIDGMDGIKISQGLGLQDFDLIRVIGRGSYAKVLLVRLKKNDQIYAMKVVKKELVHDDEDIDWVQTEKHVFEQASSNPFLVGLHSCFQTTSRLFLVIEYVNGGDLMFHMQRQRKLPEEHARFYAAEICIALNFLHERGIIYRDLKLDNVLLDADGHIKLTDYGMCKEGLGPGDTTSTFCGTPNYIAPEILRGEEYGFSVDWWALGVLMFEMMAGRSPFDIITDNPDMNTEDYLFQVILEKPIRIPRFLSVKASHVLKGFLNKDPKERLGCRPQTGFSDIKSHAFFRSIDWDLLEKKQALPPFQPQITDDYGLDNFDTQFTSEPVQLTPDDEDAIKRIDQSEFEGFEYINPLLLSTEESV

[11] = target: T4, Serine/threonine-protein kinase Chk1 (Homo sapiens) (UniProt O14757); test: Inhibition of CHK1 at 10 uM
T4 sequence (whole entry): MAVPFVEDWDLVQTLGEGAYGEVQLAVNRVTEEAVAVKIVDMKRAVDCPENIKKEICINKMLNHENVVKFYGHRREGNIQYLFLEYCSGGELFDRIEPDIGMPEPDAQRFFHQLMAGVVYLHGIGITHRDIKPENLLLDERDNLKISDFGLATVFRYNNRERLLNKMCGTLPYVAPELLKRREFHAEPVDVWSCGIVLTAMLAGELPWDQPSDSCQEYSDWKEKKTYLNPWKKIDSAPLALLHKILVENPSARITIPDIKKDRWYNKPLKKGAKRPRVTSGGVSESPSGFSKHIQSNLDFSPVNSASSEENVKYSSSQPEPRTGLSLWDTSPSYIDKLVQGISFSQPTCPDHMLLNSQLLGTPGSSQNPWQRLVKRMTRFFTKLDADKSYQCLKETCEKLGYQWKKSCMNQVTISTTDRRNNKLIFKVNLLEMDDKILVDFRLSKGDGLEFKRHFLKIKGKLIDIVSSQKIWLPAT

[12] = target: Mitogen-activated protein kinase 1 (Homo sapiens) (UniProt P28482); test: Inhibition of ERK2 at 10 uM
Sequence of Mitogen-activated protein kinase 1 (Homo sapiens) (P28482 whole entry): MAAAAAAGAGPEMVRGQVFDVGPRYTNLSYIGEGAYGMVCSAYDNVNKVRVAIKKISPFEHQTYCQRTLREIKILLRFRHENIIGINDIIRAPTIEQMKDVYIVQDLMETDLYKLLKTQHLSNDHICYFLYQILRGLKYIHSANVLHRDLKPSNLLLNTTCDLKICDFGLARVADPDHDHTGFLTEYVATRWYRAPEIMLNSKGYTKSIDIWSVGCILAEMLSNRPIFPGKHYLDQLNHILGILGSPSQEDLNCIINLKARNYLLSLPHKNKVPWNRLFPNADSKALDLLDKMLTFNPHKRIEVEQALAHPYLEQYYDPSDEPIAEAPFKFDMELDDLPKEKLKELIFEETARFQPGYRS

[13] = Inhibition of PKA at 10 uM
[14] = target: Glycogen synthase kinase-3 beta (Homo sapiens) (UniProt P49841); test: Inhibition of GSK3-beta at 10 uM
[15] = target: Serine/threonine-protein kinase Chk2 (Homo sapiens) (UniProt O96017); test: Inhibition of CHK2 at 10 uM
Sequence of Serine/threonine-protein kinase Chk2 (Homo sapiens) (O96017 whole entry): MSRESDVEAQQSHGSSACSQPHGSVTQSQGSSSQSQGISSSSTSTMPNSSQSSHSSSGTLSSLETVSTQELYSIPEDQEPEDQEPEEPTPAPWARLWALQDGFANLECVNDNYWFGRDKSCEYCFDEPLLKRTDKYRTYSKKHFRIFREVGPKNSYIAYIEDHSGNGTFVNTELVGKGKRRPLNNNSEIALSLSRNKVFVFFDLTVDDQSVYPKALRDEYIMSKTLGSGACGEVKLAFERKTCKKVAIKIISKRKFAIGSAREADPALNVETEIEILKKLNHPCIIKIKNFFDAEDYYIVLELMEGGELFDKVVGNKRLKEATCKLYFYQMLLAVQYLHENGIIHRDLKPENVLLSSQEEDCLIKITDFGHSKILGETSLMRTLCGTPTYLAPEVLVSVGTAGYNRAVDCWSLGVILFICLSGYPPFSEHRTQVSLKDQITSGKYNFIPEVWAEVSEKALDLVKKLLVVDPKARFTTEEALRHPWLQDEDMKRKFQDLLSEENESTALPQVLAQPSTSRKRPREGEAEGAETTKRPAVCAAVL

[16] = target: T1, Death-associated protein kinase 3; test: Inhibition of human recombinant DAPK3
Target sequence in this assay (O43293 whole entry): as the sequence (O43293 whole entry, looked up) above

[17] = target: Mitogen-activated protein kinase 3 (Homo sapiens) (UniProt P27361); test: Inhibition of ERK1 at 10 uM
Sequence of Mitogen-activated protein kinase 3 (Homo sapiens) (P27361 whole entry): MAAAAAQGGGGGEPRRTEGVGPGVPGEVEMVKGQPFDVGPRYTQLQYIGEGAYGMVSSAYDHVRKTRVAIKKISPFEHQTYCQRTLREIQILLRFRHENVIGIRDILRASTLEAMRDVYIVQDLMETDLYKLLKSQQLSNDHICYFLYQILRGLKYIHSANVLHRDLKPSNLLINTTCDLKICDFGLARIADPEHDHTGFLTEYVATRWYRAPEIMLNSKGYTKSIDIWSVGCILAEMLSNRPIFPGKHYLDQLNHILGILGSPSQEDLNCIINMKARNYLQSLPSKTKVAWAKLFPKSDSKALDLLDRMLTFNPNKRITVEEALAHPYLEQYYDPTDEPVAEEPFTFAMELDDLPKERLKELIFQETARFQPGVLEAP

[18] = target: T1, Death-associated protein kinase 3; test: Inhibition of human recombinant DAPK3 at 1 uM
Target sequence in this assay (O43293 whole entry, looked up): as the sequence (O43293 whole entry, looked up) above

[19] = target: T5, Serine/threonine-protein kinase D2 (Homo sapiens) (UniProt Q9BZL6); test: Inhibition of PKD2 at 10 uM
T5 sequence (whole entry): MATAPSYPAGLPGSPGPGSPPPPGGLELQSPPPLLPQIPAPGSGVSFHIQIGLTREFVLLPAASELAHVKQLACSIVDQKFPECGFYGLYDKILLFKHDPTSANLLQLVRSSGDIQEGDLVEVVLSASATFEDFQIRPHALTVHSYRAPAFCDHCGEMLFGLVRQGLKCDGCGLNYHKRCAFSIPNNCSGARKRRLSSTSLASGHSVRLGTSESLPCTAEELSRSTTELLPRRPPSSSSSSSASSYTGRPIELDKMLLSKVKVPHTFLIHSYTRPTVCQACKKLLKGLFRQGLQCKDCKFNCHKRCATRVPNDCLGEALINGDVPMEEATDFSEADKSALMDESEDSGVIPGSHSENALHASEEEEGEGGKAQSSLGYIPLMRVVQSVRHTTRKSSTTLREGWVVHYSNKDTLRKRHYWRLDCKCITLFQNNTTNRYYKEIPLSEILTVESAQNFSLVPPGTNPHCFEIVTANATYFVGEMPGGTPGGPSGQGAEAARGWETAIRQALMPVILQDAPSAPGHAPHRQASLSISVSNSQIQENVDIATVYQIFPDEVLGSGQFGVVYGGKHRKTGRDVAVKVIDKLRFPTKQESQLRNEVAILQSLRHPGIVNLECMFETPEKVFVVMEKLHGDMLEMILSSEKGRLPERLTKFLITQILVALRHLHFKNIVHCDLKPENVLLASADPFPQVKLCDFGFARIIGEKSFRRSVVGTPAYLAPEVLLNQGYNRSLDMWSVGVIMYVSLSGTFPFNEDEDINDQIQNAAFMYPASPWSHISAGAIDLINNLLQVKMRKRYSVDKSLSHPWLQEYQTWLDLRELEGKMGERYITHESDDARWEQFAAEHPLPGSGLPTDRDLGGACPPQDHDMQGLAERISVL

[20] = target: RAC-alpha serine/threonine-protein kinase (Homo sapiens) (UniProt P31749); test: Inhibition of AKT1 at 10 uM
[21] = target: Tyrosine-protein kinase Lyn (Homo sapiens) (UniProt P07948); test: Inhibition of LYN at 10 uM
[22] = target: Hepatocyte growth factor receptor (Homo sapiens) (UniProt P08581); test: Inhibition of MET at 10 uM
[23] = target: Tyrosine-protein kinase ABL1 (Homo sapiens) (UniProt P00519); test: Inhibition of ABL at 10 uM
[24] = target: MAP kinase-activated protein kinase 5 (Homo sapiens) (UniProt Q8IW41); test: Inhibition of PRAK at 10 uM
[25] = target: Tyrosine-protein kinase Fyn (Homo sapiens) (UniProt P06241); test: Inhibition of FYN at 10 uM
[26] = target: Insulin receptor (Homo sapiens) (UniProt P06213); test: Inhibition of INSR at 10 uM
[27] = target: MAP kinase-activated protein kinase 2 (Homo sapiens) (UniProt P49137); test: Inhibition of MAPKAPK2 at 10 uM

O=C1OC(c2ccc(Cl)cc2)=N/C1=C\c1cccnc1
inhibition [1]: 96% | inhibition [2]: 2% | inhibition [3]: 0% | inhibition [4]: 3% | inhibition [5]: 17% | inhibition [6]: 76% | inhibition [7]: 15% | inhibition [8]: 10% | inhibition [9]: 8% | inhibition [10]: -3% | inhibition [11]: 12% | inhibition [12]: 10% | inhibition [13]: 9% | inhibition [14]: 7% | inhibition [15]: 24% | IC50 [16]: 529 nM | inhibition [17]: 25% | inhibition [18]: 85% | inhibition [19]: 17% | inhibition [20]: 13%

O=C1OC(/C=C/c2ccccc2)=NC/1=C\c1cccnc1
inhibition [1]: 100% | inhibition [21]: 1% | inhibition [22]: 3% | inhibition [23]: 9% | inhibition [2]: 8% | inhibition [3]: 13% | inhibition [24]: 5% | inhibition [25]: 1% | inhibition [4]: 5% | inhibition [5]: 17% | inhibition [6]: 91% | inhibition [7]: 14% | inhibition [8]: 4% | inhibition [9]: 8% | inhibition [26]: 4% | inhibition [10]: 3% | inhibition [11]: 12% | inhibition [12]: 20% | inhibition [14]: 3% | inhibition [15]: 17% | inhibition [17]: 7% | inhibition [27]: 46% | inhibition [20]: 15%
